According to patent US12239686B2, “Immune checkpoint inhibitor combinations” (LYTIX BIOPHARMA AS, priority 2014, dated 2025):
Non-standard residues stand in square brackets, D forms with d. Residues, ends and D or L forms follow the SMILES beside them. Dip = N[C@H](C(=O)O)C(c1ccccc1)c1ccccc1

What was measured:
[1] = test system: CT26WT colon carcinoma cells; assay: Re-challenge with CT26WT cells in mice with complete tumour regression; format: in vivo
Method: Methods: Female Balb-c mice (n=4), previously treated with LTX-315, 1 mg) or (n=9); previously treated with LTX-315 0.5 or 1 mg) were re-inoculated (s.c. in the abdominal area) with either murine A20 B cell lymphoma cells or CT26WT colon carcinoma cells (5 million) respectively 6 weeks following initial treatment with LTX-315. Tumour growth was monitored for up to 36 days following re-inoculation.

[2] = test system: human red blood cells; assay: Haemolytic activity in vitro; format: cell-based; conditions: 1 h, 37° C.
Method: Freshly collected human blood was centrifuged at 1500 rpm for 10 minutes in order to isolate the red blood cells. The red blood cells (RBC) were washed three times with PBS [35 mM phosphate buffer with 150 mM NaCl, pH 7.4] by centrifugation at 1500 rpm for 10 minutes, and adjusted to 10% haematocrit with PBS. LTX-315 solutions were added to give a final concentration range of the peptide from 1200 μg/ml to 1 μg/ml and an RBC concentration of 1%. The resulting suspension was incubated with agitation for one hour at 37° C. After incubation the suspension was centrifuged at 4000 rpm for 5 minutes, and the released haemoglobin were monitored by measuring the absorbance of the supernatant at 405 nm. PBS was used as negative control and assumed to cause no haemolysis. 0.1% Triton was used as positive control and assumed to cause complete haemolysis.
Released haemoglobin was monitored by measuring the absorbance of the supernatant at 405 nm, and percent haemolysis was calculated by the equation: […]
LTX-315 concentration corresponding to 50% haemolysis (ECs) was determined from a dose-response curve.

[3] = test system: murine A20 B-cell lymphoma; assay: Murine A20 B-cell lymphoma tumours in mice, intratumoural treatment; format: in vivo; conditions: for Mean tumour size (mm^2) at day 1: prior to start of treatment
Method: The administration took place by intratumoural injection of LTX-315 dissolved in sterile saline.
The mice were divided into four groups (see Table 8 below for details). The intratumoural treatment was initiated when the tumours had reached the desired size of approximately 5 mm in diameter (minimum of 20 mm^2).
Three dose levels of LTX-315, 1 mg (Group 1), 0.5 mg (Group 2) and 0.25 mg (Group 3) per injection, were investigated. The volume was 50 μl for all injections. LTX-315 was dissolved in sterile 0.9% NaCl water solution. This vehicle was used as control (Group 4). All four groups received three injections.
A calliper was used for tumour size measurements and weighing and physical examination were used as health control.

[4] = test system: A375 cells; assay: TEM electron microscopy, ultrastructural changes; format: cell-based, human
Method: A375 cells were seeded at 1×10^5 cells per well in 6-well plates and allowed to grow for three days to optimize membrane structures in the culture, and the media was changed on the second day. Cells were washed twice in serum-free RPMI before being treated with LTX-315 dissolved in serum-free RPMI at 5, 10 and 25 μg/ml, with serum-free RPMI as a negative control. Cells were then washed with PBS twice before fixation for 24 hours in 4° C. with 4% formaldehyde and 1% gluteralaldehyde in a Hepes buffer at pH 7.8. Dehydration and post-fixation protocols included incubation in a 5% buffered tannic acid and incubation in a 1% osmium-reduced ferrocyanide. Ultrathin sections were prepared, and uranyl acetate (5%) and Reynolds's lead citrate were used for staining and contrasting. Samples were examined on a JEOL JEM-1010 transmission electron microscope, and images were taken with an Olympus Morada side-mounted TEM CCD camera (Olympus soft imaging solutions, GmbH, Germany).

[5] = test system: murine CT26WT colon carcinoma; assay: Murine CT26WT colon carcinoma tumours in mice, intratumoural treatment; format: in vivo; conditions: for Mean tumour size (mm^2) at day 1: prior to start of treatment
Method: The administration takes place by intra-tumoural injection of LTX-315 dissolved in sterile saline (0.9% NaCl in sterile water).
The mice were divided into five groups, 8 mice in each group. When the tumours reached the desired size of 20 mm^2 the treatment by intra tumoural injection was initiated. Group one was treated solely on day 1, Group two on day 1 and 2, Group three on day 1 and 3 and Group four on day 1, 2 and 3. All daily treatments were one single injection of 1.0 mg LTX-315 dissolved in 50 μl (20 mg/ml). Group five was treated with the 50 μl of vehicle for LTX-315 (Group 5).
Weighing and physical examination were used as health controls.

[6] = Group 1, 1 mg intratumoural days 1,2,3
[7] = Group 2, 0.5 mg intratumoural days 1,2,3
[8] = Group 3, 0.25 mg intratumoural days 1,2,3
[9] = Group 1, 1 mg intratumoural day 1
[10] = Group 2, 1 mg intratumoural days 1,2
[11] = Group 3, 1 mg intratumoural days 1,3
[12] = Group 4, 1 mg intratumoural days 1,2,3

## NCCCC[C@H](NC(=O)[C@@H](NC(=O)[C@H](Cc1c[nH]c2ccccc12)NC(=O)[C@H](CCCCN)NC(=O)[C@H](CCCCN)NC(=O)[C@H](Cc1c[nH]c2ccccc12)NC(=O)[C@H](Cc1c[nH]c2ccccc12)NC(=O)[C@H](CCCCN)NC(=O)[C@@H](N)CCCCN)C(c1ccccc1)c1ccccc1)C(N)=O [LTX-315, K-K-W-W-K-K-W-Dip-K-NH2] (H-KKWWKKW[Dip]K-NH2)
[1]; 9 mice previously treated with LTX-315 0.5 or 1 mg, P<0.01
  tumour growth after re-inoculation in comparison with control animals: inhibition (P<0.01) of tumour growth was observed
[1]; of 9 re-inoculated mice
  animals with complete regression after re-inoculation: 2 animals
  mice in which inhibition was observed after re-inoculation: 7 mice
[2]; LTX-315 1 μg/ml
  Mean cell death (%): 0.0%
[2]; LTX-315 10 μg/ml
  Mean cell death (%): 0.6%
[2]; LTX-315 50 μg/ml
  Mean cell death (%): 1.6%
[2]; LTX-315 100 μg/ml
  Mean cell death (%): 3.6%
[3]; [6]
  Mean tumour size (mm^2) on day 4: 0 mm^2
  Mean tumour size (mm^2) on day 9: 3.70 ± 2.40 mm^2
  Mean tumour size (mm^2) on day 14: 12.43 ± 7.87 mm^2
  Mean tumour size (mm^2) at day 1: 25.82 ± 0.80 mm^2
[3]; Group 1, 1 mg x3
  Relapse of Tumour: 25%
[3]; Group 1, 1 mg x3, n=7
  Free of Tumour at end of Follow-Up: 42.8%
  Tumour Response: complete response: 57.2%
  Tumour Response: partial response: 42.8%
[3]; Group 1, optimal dose 1 mg x3
  treated mice with a complete tumour response: 3 of 7
[3]; [7]
  Mean tumour size (mm^2) on day 4: 0 mm^2
  Mean tumour size (mm^2) on day 9: 11.41 ± 4.69 mm^2
  Mean tumour size (mm^2) on day 14: 61.08 ± 23.84 mm^2
  Mean tumour size (mm^2) at day 1: 22.03 ± 0.63 mm^2
[3]; Group 2, 0.5 mg x3
  Relapse of Tumour: 0%
[3]; Group 2, 0.5 mg x3, n=7
  Free of Tumour at end of Follow-Up: 28.57%
  Tumour Response: complete response: 28.57%
[3]; [8]
  Mean tumour size (mm^2) on day 4: 20.60 ± 5.71 mm^2
  Mean tumour size (mm^2) on day 9: 68.49 ± 12.74 mm^2
  Mean tumour size (mm^2) on day 14: 69.42 ± 17.70 mm^2
  Mean tumour size (mm^2) at day 1: 21.25 ± 0.64 mm^2
[3]; Group 3, 0.25 mg x3, n=9
  Tumour Response: complete response: 0%
[3]; all LTX-315 groups, apart from wound formation
  adverse events or toxic effects: no other adverse events or toxic effects were observed
[4]; 3.5 μM
  cells with vacuolization: approximately 20%
[4]; 3.5 μM, 60 minutes
  number of necrotic cells: less than 5%
[4]; 17 μM, 60 min
  cells displaying vacuolization: 4%
  cells with necrotic morphology with loss of plasma membrane integrity: approximately 40%
[5]; Group 1, 1 mg day 1
  Relapse of Tumour: 20%
[5]; Group 1, 1 mg day 1, n=8
  Free of Tumour at end of Follow-Up: 50%
[5]; [9]
  Mean tumour size (mm^2) on day 6: 4.343 ± 2.295 mm^2
  Mean tumour size (mm^2) on day 10: 7.171 ± 4.035 mm^2
  Mean tumour size (mm^2) on day 17: 3.712 ± 3.712 mm^2
  Mean tumour size (mm^2) at day 1: 22.69 ± 0.4070 mm^2
[5]; Group 2, 1 mg days 1,2
  Relapse of Tumour: 71%
[5]; Group 2, 1 mg days 1,2, n=8
  Free of Tumour at end of Follow-Up: 25%
[5]; [10]
  Mean tumour size (mm^2) on day 6: 1.458 ± 1.458 mm^2
  Mean tumour size (mm^2) on day 10: 5.058 ± 4.014 mm^2
  Mean tumour size (mm^2) on day 17: 6.644 ± 3.430 mm^2
  Mean tumour size (mm^2) at day 1: 22.90 ± 1.155 mm^2
[5]; Group 3, 1 mg days 1,3
  Relapse of Tumour: 29%
[5]; Group 3, 1 mg days 1,3, n=8
  Free of Tumour at end of Follow-Up: 62.5%
[5]; [11]
  Mean tumour size (mm^2) on day 6: 2.983 ± 2.983 mm^2
  Mean tumour size (mm^2) on day 10: 10.85 ± 7.553 mm^2
  Mean tumour size (mm^2) on day 17: 0.00 ± 0.00 mm^2
  Mean tumour size (mm^2) at day 1: 21.43 ± 1.141 mm^2
[5]; Group 4, 1 mg days 1,2,3, n=8
  Free of Tumour at end of Follow-Up: 62.5%
  Tumour Response: complete response: 100%
[5]; [12]
  Mean tumour size (mm^2) on day 6: 0.00 ± 0.00 mm^2
  Mean tumour size (mm^2) on day 10: 0.00 ± 0.00 mm^2
  Mean tumour size (mm^2) on day 17: 1.308 ± 1.308 mm^2
  Mean tumour size (mm^2) at day 1: 24.09 ± 1.653 mm^2
[5]; all four LTX-315 groups together
  treated animals observed with a complete tumour response: 27 of the 32
[5]; all treated groups
  toxic or other adverse effects: No toxic or other adverse effects besides local necrotic tissue and wound formation were observed
